{"source": "paper PMC3023147", "about": "(Protein & cell, 2010)", "biological_target": "T1, mTAT (mouse tyrosine aminotransferase) (Mus musculus, UniProt Q8QZR1)", "T1 sequence (Q8QZR1 41-442)": "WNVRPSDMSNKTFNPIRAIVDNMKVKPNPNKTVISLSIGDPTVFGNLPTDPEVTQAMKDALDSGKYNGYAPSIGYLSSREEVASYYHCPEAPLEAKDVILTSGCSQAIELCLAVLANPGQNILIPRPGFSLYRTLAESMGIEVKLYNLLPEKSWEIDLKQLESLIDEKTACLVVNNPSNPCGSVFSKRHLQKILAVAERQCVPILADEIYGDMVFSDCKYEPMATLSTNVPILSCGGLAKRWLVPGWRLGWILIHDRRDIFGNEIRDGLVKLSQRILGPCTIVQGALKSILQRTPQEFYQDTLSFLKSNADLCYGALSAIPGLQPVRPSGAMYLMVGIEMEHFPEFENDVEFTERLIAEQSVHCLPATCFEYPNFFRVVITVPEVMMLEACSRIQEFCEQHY", "assay": "X-ray crystal structure, […] Å", "assay_type": "binding", "settings": "covalent; internal Schiff base with Lys280; pH 6.8"}
{"compound": "Cc1ncc(COP(=O)(O)O)c(C=O)c1O", "note": "[PLP]", "values": [{"measurement": "X-ray crystal structure, 2.9 Å", "result": "Residual electron density clearly revealed the presence of covalently bound PLP in the active center"}]}
